{"source": "ChEMBL document CHEMBL1153513", "about": "“Sildenafil is a strong activator of mammalian carbonic anhydrase isoforms I-XIV” (Bioorg Med Chem, 2009)", "key": {"[1]": {"biological_target": "Carbonic anhydrase 6 (Homo sapiens) (UniProt P23280)", "sequence (P23280 whole entry)": "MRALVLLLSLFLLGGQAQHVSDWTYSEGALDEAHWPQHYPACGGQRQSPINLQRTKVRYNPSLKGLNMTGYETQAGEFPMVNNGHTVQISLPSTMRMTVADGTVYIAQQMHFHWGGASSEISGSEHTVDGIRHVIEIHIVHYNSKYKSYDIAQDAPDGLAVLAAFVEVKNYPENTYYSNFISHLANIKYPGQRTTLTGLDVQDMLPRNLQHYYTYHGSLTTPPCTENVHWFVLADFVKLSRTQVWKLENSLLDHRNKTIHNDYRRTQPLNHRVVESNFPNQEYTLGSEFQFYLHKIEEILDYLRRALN", "assay": "Activation of human recombinant carbonic anhydrase 6 by stopped flow CO2 hydration method"}, "[2]": {"tested_on": "Rattus norvegicus", "assay": "Activation of carbonic anhydrase in Sprague-Dawley rat red blood cells at 1 mg/kg, po after 3 hrs by colorimetry relative to control", "format": "functional"}, "[3]": {"biological_target": "Carbonic anhydrase 7 (Homo sapiens) (UniProt P43166)", "sequence (P43166 whole entry)": "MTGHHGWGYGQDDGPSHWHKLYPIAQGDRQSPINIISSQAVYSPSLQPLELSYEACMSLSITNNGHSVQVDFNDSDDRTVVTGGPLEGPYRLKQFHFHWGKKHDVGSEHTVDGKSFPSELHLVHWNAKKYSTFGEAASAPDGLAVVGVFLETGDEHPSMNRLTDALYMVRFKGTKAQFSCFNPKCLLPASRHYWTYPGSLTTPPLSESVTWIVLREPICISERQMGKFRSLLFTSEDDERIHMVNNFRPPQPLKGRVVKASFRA", "assay": "Activation of human recombinant carbonic anhydrase 7 by stopped flow CO2 hydration method"}, "[4]": {"biological_target": "Carbonic anhydrase 3 (Homo sapiens) (UniProt P07451)", "sequence (P07451 whole entry)": "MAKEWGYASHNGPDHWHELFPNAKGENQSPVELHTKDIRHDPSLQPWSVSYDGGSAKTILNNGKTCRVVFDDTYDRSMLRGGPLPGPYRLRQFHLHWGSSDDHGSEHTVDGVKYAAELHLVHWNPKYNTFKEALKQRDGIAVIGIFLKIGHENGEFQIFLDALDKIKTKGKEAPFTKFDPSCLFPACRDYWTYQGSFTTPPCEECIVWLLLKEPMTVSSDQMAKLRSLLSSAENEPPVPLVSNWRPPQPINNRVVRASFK", "assay": "Activation of human recombinant carbonic anhydrase 3 by stopped flow CO2 hydration method"}, "[5]": {"biological_target": "Carbonic anhydrase 5A, mitochondrial (Homo sapiens) (UniProt P35218)", "sequence (P35218 whole entry)": "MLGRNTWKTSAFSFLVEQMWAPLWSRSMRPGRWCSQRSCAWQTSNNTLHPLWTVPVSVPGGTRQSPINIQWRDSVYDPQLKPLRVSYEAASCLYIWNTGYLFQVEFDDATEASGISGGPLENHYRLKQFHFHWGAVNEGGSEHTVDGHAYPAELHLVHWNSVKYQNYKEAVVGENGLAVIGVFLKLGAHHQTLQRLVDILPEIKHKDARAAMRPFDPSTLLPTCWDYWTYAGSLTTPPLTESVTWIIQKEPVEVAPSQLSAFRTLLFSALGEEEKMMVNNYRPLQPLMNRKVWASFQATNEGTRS", "assay": "Activation of human recombinant carbonic anhydrase 5A by stopped flow CO2 hydration method"}, "[6]": {"biological_target": "Carbonic anhydrase 5B, mitochondrial (Homo sapiens) (UniProt Q9Y2D0)", "sequence (Q9Y2D0 whole entry)": "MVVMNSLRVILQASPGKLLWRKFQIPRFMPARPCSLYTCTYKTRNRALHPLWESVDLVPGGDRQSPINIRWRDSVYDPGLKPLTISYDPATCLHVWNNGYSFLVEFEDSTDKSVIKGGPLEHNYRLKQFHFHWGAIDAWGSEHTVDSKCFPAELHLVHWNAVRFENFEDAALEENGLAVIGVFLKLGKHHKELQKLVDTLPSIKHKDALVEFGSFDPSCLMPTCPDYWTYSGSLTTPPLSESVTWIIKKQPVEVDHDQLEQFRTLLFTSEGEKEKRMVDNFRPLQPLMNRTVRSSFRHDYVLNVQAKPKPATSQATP", "assay": "Activation of human recombinant carbonic anhydrase 5B by stopped flow CO2 hydration method"}, "[7]": {"tested_on": "Rattus norvegicus", "assay": "Activation of carbonic anhydrase in Sprague-Dawley rat red blood cells at 1 mg/kg, po after 1 hr by colorimetry relative to control", "format": "functional"}, "[8]": {"tested_on": "Rattus norvegicus", "assay": "Activation of carbonic anhydrase in Sprague-Dawley rat red blood cells at 1 mg/kg, po after 5 hrs by colorimetry relative to control", "format": "functional"}, "[9]": {"biological_target": "Carbonic anhydrase 14 (Homo sapiens) (UniProt Q9ULX7)", "sequence (Q9ULX7 whole entry)": "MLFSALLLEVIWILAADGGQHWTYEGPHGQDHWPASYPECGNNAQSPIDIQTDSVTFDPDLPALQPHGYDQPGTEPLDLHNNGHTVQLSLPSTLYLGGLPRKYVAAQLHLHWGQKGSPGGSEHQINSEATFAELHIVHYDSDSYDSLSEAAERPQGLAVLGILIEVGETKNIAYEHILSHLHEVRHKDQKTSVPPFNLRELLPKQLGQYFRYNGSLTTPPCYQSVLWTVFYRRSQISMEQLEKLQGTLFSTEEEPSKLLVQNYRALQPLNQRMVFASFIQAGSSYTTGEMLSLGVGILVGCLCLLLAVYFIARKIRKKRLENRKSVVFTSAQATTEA", "assay": "Activation of human recombinant carbonic anhydrase 14 by stopped flow CO2 hydration method"}, "[10]": {"biological_target": "Carbonic anhydrase 1 (Homo sapiens) (UniProt P00915)", "sequence (P00915 2-261 limits assumed)": "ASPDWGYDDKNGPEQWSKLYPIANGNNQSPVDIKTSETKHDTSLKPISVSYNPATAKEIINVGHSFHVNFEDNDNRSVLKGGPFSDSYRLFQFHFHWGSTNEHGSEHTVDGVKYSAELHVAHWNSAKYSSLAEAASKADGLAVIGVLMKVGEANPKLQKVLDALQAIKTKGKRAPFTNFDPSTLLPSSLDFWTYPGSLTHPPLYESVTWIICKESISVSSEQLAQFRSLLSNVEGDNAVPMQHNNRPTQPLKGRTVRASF", "assay": "Activation of human recombinant carbonic anhydrase 1 by stopped flow CO2 hydration method"}, "[11]": {"biological_target": "Carbonic anhydrase 9 (Homo sapiens) (UniProt Q16790)", "assay": "Activation of human recombinant carbonic anhydrase 9 catalytic domain by stopped flow CO2 hydration method"}, "[12]": {"biological_target": "Carbonic anhydrase 13 (Mus musculus) (UniProt Q9D6N1)", "sequence (Q9D6N1 whole entry, looked up)": "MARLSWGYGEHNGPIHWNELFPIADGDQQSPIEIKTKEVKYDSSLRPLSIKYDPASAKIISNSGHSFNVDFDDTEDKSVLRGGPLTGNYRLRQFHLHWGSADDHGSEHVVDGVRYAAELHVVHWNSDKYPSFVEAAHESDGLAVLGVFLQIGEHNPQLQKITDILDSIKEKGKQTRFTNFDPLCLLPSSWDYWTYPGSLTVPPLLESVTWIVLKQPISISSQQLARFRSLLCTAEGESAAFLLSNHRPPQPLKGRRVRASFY", "assay": "Activation of mouse recombinant carbonic anhydrase 13 by stopped flow CO2 hydration method"}, "[13]": {"assay": "Half life in po dosed human plasma", "format": "ADME, organism-based"}, "[14]": {"biological_target": "Carbonic anhydrase 12 (Homo sapiens) (UniProt O43570)", "sequence (O43570 whole entry, the tested form may be a part)": "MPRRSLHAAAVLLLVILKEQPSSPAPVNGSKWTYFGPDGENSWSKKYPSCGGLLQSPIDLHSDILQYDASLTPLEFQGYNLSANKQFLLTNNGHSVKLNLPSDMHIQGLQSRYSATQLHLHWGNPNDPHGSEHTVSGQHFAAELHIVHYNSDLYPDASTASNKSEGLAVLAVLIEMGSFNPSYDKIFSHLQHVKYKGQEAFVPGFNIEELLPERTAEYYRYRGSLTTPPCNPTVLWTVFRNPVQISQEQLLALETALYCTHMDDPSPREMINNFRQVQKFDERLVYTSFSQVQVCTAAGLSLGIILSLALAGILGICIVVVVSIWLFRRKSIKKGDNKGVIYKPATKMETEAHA", "assay": "Activation of human recombinant carbonic anhydrase 12 catalytic domain by stopped flow CO2 hydration method"}, "[15]": {"biological_target": "Carbonic anhydrase 2 (Homo sapiens) (UniProt P00918)", "assay": "Activation of human recombinant carbonic anhydrase 2 by stopped flow CO2 hydration method"}, "[16]": {"biological_target": "Carbonic anhydrase 4 (Homo sapiens) (UniProt P22748)", "sequence (P22748 whole entry)": "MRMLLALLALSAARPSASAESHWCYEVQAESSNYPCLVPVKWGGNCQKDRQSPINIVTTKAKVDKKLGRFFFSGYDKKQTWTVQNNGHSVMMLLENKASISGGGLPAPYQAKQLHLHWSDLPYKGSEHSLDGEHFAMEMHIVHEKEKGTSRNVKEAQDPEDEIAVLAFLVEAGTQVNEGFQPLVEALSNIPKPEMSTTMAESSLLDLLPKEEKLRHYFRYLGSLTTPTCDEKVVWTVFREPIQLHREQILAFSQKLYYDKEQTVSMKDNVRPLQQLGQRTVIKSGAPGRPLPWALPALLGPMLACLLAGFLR", "assay": "Activation of human recombinant carbonic anhydrase 4 by stopped flow CO2 hydration method"}}, "data": [{"smiles": "NCCN1CCNCC1", "values": [{"measurement": "KA", "setting": "[1]", "result": 9.54, "unit": "µM"}]}, {"smiles": "CCCc1nn(C)c2c(=O)[nH]c(-c3cc(S(=O)(=O)N4CCN(C)CC4)ccc3OCC)nc12.O=C(O)CC(O)(CC(=O)O)C(=O)O", "note": "[SILDENAFIL CITRATE]", "values": [{"measurement": "Activity", "setting": "[2]", "result": 59.6, "unit": "%"}, {"measurement": "KA", "setting": "[3]", "result": 72.9, "unit": "µM"}, {"measurement": "KA", "setting": "[1]", "result": 2.37, "unit": "µM"}, {"measurement": "KA", "setting": "[4]", "result": 13.4, "unit": "µM"}, {"measurement": "KA", "setting": "[5]", "result": 16.8, "unit": "µM"}, {"measurement": "KA", "setting": "[6]", "result": 6.54, "unit": "µM"}, {"measurement": "Activity", "setting": "[7]", "result": 84.47, "unit": "%"}, {"measurement": "Activity", "setting": "[8]", "result": 79.19, "unit": "%"}, {"measurement": "KA", "setting": "[9]", "result": 32.4, "unit": "µM"}, {"measurement": "KA", "setting": "[10]", "result": 1.08, "unit": "µM"}, {"measurement": "KA", "setting": "[11]", "result": 34, "unit": "µM"}, {"measurement": "KA", "setting": "[12]", "result": 27.5, "unit": "µM"}, {"measurement": "half-life", "setting": "[13]", "result": 4, "unit": "h"}, {"measurement": "KA", "setting": "[14]", "result": 73, "unit": "µM"}, {"measurement": "KA", "setting": "[15]", "result": 31.3, "unit": "µM"}, {"measurement": "KA", "setting": "[16]", "result": 15.2, "unit": "µM"}]}, {"smiles": "NCCc1c[nH]cn1", "values": [{"measurement": "KA", "setting": "[1]", "result": 6.5, "unit": "µM"}]}]}
